Test results taken from patent US8420654B2 (Eli Lilly and Company, priority 2008, dated 2013).

How the values were obtained:
rCB-1 = biological target: T1, rCB-1 (Rattus norvegicus, UniProt P20272); test: rCB1-CHO antagonist mode SPA GTP-γ-35S binding assay; type: biochemical; settings: rat CB-1 CHO membranes, antagonist mode vs methanandamide; read-out: rCB-1 SPA GTPγS CHO Membrane Antagonist Kb
T1 construct: purchased Applied Cell Sciences, Rockville, Md; host or cells: CHO cells (membranes)
Method: (§1) Compounds of the present invention may be tested for functional activity at the CB-1 and CB-2 receptors in both agonist and antagonist modes using SPA (Scintillation Proximity Assay) based GTP-γ-^35S binding assays. All assay components are prepared in assay buffer (20 mM HEPES, 100 mM NaCl, 5 mM MgCl2, pH 7.4) at room temperature. Semi-log dilutions of test compound are prepared in assay buffer containing BSA (0.125% final conc.) for the agonist mode assays. For the antagonist mode assays, test compounds are prepared in the same manner but also include an 80% efficacious dose of a full agonist (methanandamide). GTP-γ^35S binding for the antagonist assay may be measured in a 96 well format using a modification of an antibody capture technique previously described. (DeLapp, N W, et al. (1999) J Pharmacol Exp Ther 289:946-955.) The CB-2 receptor agonist activity may be measured using a similar method using hCB2-Sf9 membranes. The CB-1 receptor agonist activity may be measured using a whole membrane capture technique using hCB1-CHO membranes. All incubations are done at room temperature.
(§2) hCB1-CHO and rCB1-CHO Antagonist Assays:
hCB1-CHO or rCB1-CHO membranes (Applied Cell Sciences, Rockville, Md.) and GDP (1 μM final) are added to ice cold assay buffer and homogenized. […] Plates are then centrifuged at 700×g for 10 min. and the radioactivity counted.
Data are analyzed as follows: Background is subtracted from all wells. […] Percent antagonist inhibition is calculated by first normalizing the data to the signal generated by a saturating concentration of the full agonist (methanandamide). Then the data are analyzed using a 4-parameter logistic reduced fit (Activity Base™ and XLFit3™ from IDBS, Emeryville, Calif.). Kb values are determined using a modification of the Cheng-Prusoff relationship: Kb=IC50/(1+[agonist]/EC50), where “IC50” is determined from a four parameter fit of displacement curves, “[agonist]” is the agonist challenge concentration (nM), and “EC50” is determined from a four parameter fit of a full agonist concentration response curve (Cheng and Prusoff 1973). […]

hCB-2 [1] = biological target: T2, hCB-2 (Homo sapiens, UniProt P34972); test: hCB2-Sf9 antagonist mode SPA GTP-γ-35S binding assay; type: biochemical; settings: human CB-2 Sf9 membranes, antagonist mode vs methanandamide; read-out: hCB-2 SPA GTPγS Sf9 Membrane Antagonist Kb
T2 construct: purchased Perkin Elmer, Boston, Mass; host or cells: Sf9 insect cells (membranes)
Method: as §1
hCB1-Sf9 and hCB2-Sf9 antagonist Assays:
hCB1-5f9 and hCB2-5f9 membranes (Perkin Elmer, Boston, Mass.) are prepared essentially as above with 1 μM (final conc.) GDP for hCB1-5f9 and 0.05 μM (final conc.) GDP for hCB2-5f9. The assay is run essentially as described for the CHO membranes above. Diluted membranes are pre-incubated with test compound for 15 min., which is followed by addition of GTP-γ-^35S and a further 35 min. incubation. Nonidet P40 and anti-Gi-antibody are added sequentially with a 15 min. incubation after each addition. The SPA beads are then added, the plates are sealed and vortexed, and then incubated at room temperature for 1 hr.
Data are analyzed as follows: Background is subtracted from all wells. Percent agonist efficacy is determine by normalizing agonist/inverse agonist dose response data to the response obtained for a full agonist (methanandamide). Percent antagonist inhibition is calculated by first normalizing the data to the signal generated by a saturating concentration of the full agonist (methanandamide). Then the data are analyzed using a 4-parameter logistic reduced fit (Activity Base™ and XLFit3™ from IDBS, Emeryville, Calif.). Kb values are determined using a modification of the Cheng-Prusoff relationship: Kb=IC50/(1+[agonist]/EC50), where “IC50” is determined from a four parameter fit of displacement curves, “[agonist]” is the agonist challenge concentration (nM), and “EC50” is determined from a four parameter fit of a full agonist concentration response curve (Cheng and Prusoff 1973). Mean Kb values are calculated as a mean of at least three independent determinations±standard error of the mean (SEM). […]

hCB-1 [2] = biological target: T3, hCB-1 (Homo sapiens, UniProt P21554); test: hCB1-CHO agonist mode SPA GTP-γ-35S binding assay; type: biochemical; settings: for hCB-1 SPA GTPγS CHO Membrane Agonist % Relative Efficacy: normalized to full agonist methanandamide, below zero = inverse agonist; for EC50: human CB-1 CHO membranes, agonist mode (inverse agonism), read-out: hCB-1 SPA GTPγS CHO Membrane Agonist Relative EC50 inverse
T3 construct: purchased Applied Cell Sciences, Rockville, Md; host or cells: CHO cells (membranes)
Method: as §1
hCB1-CHO membrane, GDP (1 μM final conc.), and saponin (10 ng/mL final conc., Sigma, St Louis, Mo.) are combined and prepared on ice as for the antagonist assays, above. Diluted test compounds, GTP-γ-^35S (500 nM final conc.) and membranes are combined in the assay plate and incubated for 30 min. Then 1 mg/well Wheatgerm Agglutinin SPA beads (GE Healthcare, Piscataway, N.J.) are added, plates are sealed and vortexed and incubate for 1 hr. before spinning and counting in the same fashion as for the antagonist assays, above.
(§3) Data are analyzed as follows: Background is subtracted from all wells. Percent agonist efficacy is determine by normalizing agonist/inverse agonist dose response data to the response obtained for a full agonist (methanandamide). Percent antagonist inhibition is calculated by first normalizing the data to the signal generated by a saturating concentration of the full agonist (methanandamide). Then the data are analyzed using a 4-parameter logistic reduced fit (Activity Base™ and XLFit3™ from IDBS, Emeryville, Calif.). Kb values are determined using a modification of the Cheng-Prusoff relationship: Kb=IC50/(1+[agonist]/EC50), where “IC50” is determined from a four parameter fit of displacement curves, “[agonist]” is the agonist challenge concentration (nM), and “EC50” is determined from a four parameter fit of a full agonist concentration response curve (Cheng and Prusoff 1973). Mean Kb values are calculated as a mean of at least three independent determinations±standard error of the mean (SEM). (Cheng Y C and Prusoff W H. (1973), Biochem Pharmacol 22:3099-3108.) Exemplified compounds are found to be potent CB-1 inverse agonists (Kb≦10 nM, typically <2 nM) and to be selective over the CB-2 receptor (Kb CB-2/Kb CB-1>500, typically >1000).

hCB-2 [3] = biological target: T2, hCB-2; test: hCB2-Sf9 agonist mode SPA GTP-γ-35S binding assay; type: biochemical; settings: human CB-2 Sf9 membranes, read-out: hCB-2 SPA GTPγS Sf9 Membrane Agonist Relative EC50
Method: as §1
The hCB2-5f9 assay is run essentially as for the hCB1-sf9 and hCB2-sf9 antagonist assays above, with no challenging agonist added. 1 μM (final conc.) GDP is added to the membrane solution and nonidet P40, anti-Gi-antibody, and SPA bead are added together in a cocktail.
as §3

hCB-1 [4] = biological target: T3, hCB-1; test: hCB1-CHO antagonist mode SPA GTP-γ-35S binding assay; type: biochemical; settings: human CB-1 CHO membranes, antagonist mode vs methanandamide; read-out: hCB-1 SPA GTPγS CHO Membrane Antagonist Kb
Method: as §1, §2
hCB1-CHO or rCB1-CHO membranes (Applied Cell Sciences, Rockville, Md.) and GDP (1 μM final) are added to ice cold assay buffer and homogenized. Diluted compounds, GTP-γ-^35S (500 nM final conc.) and membranes are added to wells of an assay plate and incubated for 30 min. at room temperature. Next, a mixture containing Nonidet P40 detergent (0.2% final conc.), rabbit polyclonal IgG Gαi-3 antibody (provided by Covance, Princeton, N.J.), and 1.25 mg anti-rabbit antibody scintillation proximity assay beads (GE Healthcare, Piscataway, N.J.) is added. The plates are sealed, vortexed, and incubated for an additional 2 hr. Plates are then centrifuged at 700×g for 10 min. and the radioactivity counted.
Data are analyzed as follows: Background is subtracted from all wells. […] Percent antagonist inhibition is calculated by first normalizing the data to the signal generated by a saturating concentration of the full agonist (methanandamide). Then the data are analyzed using a 4-parameter logistic reduced fit (Activity Base™ and XLFit3™ from IDBS, Emeryville, Calif.). Kb values are determined using a modification of the Cheng-Prusoff relationship: Kb=IC50/(1+[agonist]/EC50), where “IC50” is determined from a four parameter fit of displacement curves, “[agonist]” is the agonist challenge concentration (nM), and “EC50” is determined from a four parameter fit of a full agonist concentration response curve (Cheng and Prusoff 1973). Mean Kb values are calculated as a mean of at least three independent determinations±standard error of the mean (SEM). […]

CYP2C9 = biological target: T4, CYP2C9 (Homo sapiens, UniProt P11712); test: Human CYP fingerprinting, sulfaphenazole inhibitor; type: in vitro ADME; settings: 4 μM, human liver microsomes, 30 min, sulfaphenazole 5 μM
T4 construct: pooled, mixed gender, human liver microsomes; from tissue; host or cells: pooled, mixed gender human liver microsomes
Method: (§4) CYP fingerprinting is well established technique and is used as an indication of potential risk of drug-drug interactions in the pharmaceutical sciences. Compounds of the present invention may be assayed by well known methods, essentially as follows: Compounds are incubated at 37° C. at a final concentration of 4 μM with pooled, mixed gender, human liver microsomes and 1 mM NADPH ([…]) (final conc.) for 0 and 30 min. without any CYP inhibitor and with each CYP inhibitor in separate incubations for 30 min. Each inhibitor is specific for an individual cytochrome P450. The specific inhibitors used for CYPs 2C9, 2D6 and 3A were sulfaphenazole, quinidine and ketoconazole, respectively. Ketoconazole (CYP3A) is made up at 25 mM in DMSO and then diluted in buffer to a final concetration of 10 μM. Quinidine (CYP2D6) is made up at 5 mM in 50/50 acetonitrile/water and then diluted in buffer to a final concetration of 10 μM. Sulfaphenazole (CYP2C9) is made up at 100 mM in DMSO and then diluted in buffer to a final concetration of 5 μM. Samples are analyzed by LC-MS in positive or negative electrospray mode using a Waters Acquity Ultra Performance LC coupled to a MicroMass Q-T of-2 mass spectrometer.
(§5) Data are analyzed using MetaboLynx™ version 4.1. With inhibitor present, a reduction in metabolite peak area of less than 30% (relative to the uninhibited control incubation) receives a designation of low risk of Drug Drug Interaction (DDI), a reduction in peak area between 30% and 70% receives a moderate risk of DDI and a reduction of more than 70% receives a high risk of DDI.

CYP3A = test: Human CYP fingerprinting, ketoconazole inhibitor; type: in vitro ADME; settings: 4 μM, human liver microsomes, 30 min, ketoconazole 10 μM
Method: as §4, §5

CYP2D6 = biological target: T5, CYP2D6 (Homo sapiens, UniProt P10635); test: Human CYP fingerprinting, quinidine inhibitor; type: in vitro ADME; settings: 4 μM, human liver microsomes, 30 min, quinidine 10 μM
T5 construct: pooled, mixed gender, human liver microsomes; from tissue; host or cells: pooled, mixed gender human liver microsomes
Method: as §4, §5

T4 sequence (P11712 whole entry): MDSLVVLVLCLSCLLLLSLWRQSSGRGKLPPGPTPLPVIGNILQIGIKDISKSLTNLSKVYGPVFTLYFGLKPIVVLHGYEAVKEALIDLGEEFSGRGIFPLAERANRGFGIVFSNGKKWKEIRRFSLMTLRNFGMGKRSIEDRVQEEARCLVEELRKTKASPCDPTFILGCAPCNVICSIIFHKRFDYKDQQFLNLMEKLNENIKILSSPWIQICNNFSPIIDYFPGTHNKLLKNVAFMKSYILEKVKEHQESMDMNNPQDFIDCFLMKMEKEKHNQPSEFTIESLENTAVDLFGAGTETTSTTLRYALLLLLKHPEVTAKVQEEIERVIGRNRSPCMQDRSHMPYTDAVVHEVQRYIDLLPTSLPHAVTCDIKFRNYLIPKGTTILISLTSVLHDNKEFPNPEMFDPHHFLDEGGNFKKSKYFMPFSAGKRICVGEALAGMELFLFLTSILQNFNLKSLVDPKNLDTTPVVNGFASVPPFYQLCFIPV
T5 sequence (P10635 whole entry): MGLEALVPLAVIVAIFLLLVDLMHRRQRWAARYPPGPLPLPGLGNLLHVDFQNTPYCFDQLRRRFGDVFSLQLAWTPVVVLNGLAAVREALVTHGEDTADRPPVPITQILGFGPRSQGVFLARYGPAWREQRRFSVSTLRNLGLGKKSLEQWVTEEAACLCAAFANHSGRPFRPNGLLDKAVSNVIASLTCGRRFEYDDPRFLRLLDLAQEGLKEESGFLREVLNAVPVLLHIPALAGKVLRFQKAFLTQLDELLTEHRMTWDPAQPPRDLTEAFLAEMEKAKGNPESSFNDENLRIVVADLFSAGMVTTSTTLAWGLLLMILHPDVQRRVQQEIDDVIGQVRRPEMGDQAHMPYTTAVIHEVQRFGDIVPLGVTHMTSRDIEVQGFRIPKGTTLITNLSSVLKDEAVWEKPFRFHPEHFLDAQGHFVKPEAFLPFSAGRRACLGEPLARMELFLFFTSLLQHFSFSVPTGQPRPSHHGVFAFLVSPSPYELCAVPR
T3 sequence (P21554 whole entry): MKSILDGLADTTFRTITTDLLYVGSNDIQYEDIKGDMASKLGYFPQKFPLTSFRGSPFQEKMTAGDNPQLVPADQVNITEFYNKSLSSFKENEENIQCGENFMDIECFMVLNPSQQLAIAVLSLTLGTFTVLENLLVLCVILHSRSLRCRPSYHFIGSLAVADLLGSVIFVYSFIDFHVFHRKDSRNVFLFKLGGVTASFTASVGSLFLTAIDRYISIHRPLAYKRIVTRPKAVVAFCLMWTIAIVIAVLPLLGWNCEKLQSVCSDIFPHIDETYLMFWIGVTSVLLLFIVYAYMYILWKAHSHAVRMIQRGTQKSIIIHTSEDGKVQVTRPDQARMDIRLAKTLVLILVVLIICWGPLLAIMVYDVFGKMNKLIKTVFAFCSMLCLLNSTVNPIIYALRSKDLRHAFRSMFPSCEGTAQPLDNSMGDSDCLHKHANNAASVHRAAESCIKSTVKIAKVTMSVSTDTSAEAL
T2 sequence (P34972 whole entry): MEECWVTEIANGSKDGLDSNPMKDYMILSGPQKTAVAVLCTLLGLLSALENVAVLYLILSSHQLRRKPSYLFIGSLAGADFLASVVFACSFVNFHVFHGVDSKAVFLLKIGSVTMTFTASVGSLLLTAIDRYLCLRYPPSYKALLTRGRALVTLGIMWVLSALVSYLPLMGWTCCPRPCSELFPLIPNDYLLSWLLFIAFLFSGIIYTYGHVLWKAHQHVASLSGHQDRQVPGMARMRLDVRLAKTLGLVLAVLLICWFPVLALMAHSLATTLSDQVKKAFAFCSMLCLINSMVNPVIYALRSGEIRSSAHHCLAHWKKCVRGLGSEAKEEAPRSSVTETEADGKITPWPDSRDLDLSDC
T1 sequence (P20272 whole entry): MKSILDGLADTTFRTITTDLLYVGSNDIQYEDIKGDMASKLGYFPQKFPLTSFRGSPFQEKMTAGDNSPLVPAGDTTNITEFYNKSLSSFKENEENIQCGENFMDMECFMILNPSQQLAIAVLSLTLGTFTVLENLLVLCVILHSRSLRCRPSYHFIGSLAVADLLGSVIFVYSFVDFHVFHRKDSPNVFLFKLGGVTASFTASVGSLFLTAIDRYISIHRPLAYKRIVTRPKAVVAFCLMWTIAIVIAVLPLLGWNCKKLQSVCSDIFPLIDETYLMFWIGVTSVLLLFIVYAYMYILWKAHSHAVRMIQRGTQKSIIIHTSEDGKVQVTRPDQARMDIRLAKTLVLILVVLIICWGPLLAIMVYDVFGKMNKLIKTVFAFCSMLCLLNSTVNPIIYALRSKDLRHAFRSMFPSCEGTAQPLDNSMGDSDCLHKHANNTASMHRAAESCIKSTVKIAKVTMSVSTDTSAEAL

| SMILES | Kb (rCB-1) [nM] | Kb (hCB-2 [1]) [nM] | hCB-1 SPA GTPγS CHO Membrane Agonist % Relative Efficacy (hCB-1 [2]) [%] | EC50 (hCB-2 [3]) [nM] | Kb (hCB-1 [4]) [nM] | Risk of Drug Drug Interaction (DDI) CYP2C9 (CYP2C9) | EC50 (hCB-1 [2]) [nM] | Risk of Drug Drug Interaction (DDI) CYP3A (CYP3A) | Risk of Drug Drug Interaction (DDI) CYP2D6 (CYP2D6) |
| --- | --- | --- | --- | --- | --- | --- | --- | --- | --- |
| CC(C)(N[C@@H]1C[C@H](c2cccc(OC(F)(F)F)c2)N(c2ccc(C(F)(F)F)cc2)C1=O)c1ccnc(C(F)(F)F)n1 [Example 1, (3R,5R)-3-[1-Methyl-1-(2-trifluoromethyl-pyrimidin-4-yl)-ethylamino]-5-(3-trifluoromethoxy-phenyl)-1-(4-trifluoromethyl-phenyl)-pyrrolidin-2-one] | 0.177 | > 8710 | −99.3 | > 8710 | 0.895 | low (a reduction in metabolite peak area of less than 30% (relative to the uninhibited control incubation) receives a designation of low risk of Drug Drug Interaction (DDI)) | – | – | – |
| CC(C)(N[C@@H]1C[C@H](c2cccc(OC(F)(F)F)c2)N(c2ccc(C(F)(F)F)cc2)C1=O)c1ccnc(C2CC2)n1 [Example 2, (3R,5R)-3-[1-(2-Cyclopropyl-pyrimidin-4-yl)-1-methyl-ethylamino]-5-(3-trifluoromethoxy-phenyl)-1-(4-trifluoromethyl-phenyl)-pyrrolidin-2-one] | – | > 10800 | −108 | > 10800 | 0.644 | low (a reduction in metabolite peak area of less than 30% (relative to the uninhibited control incubation) receives a designation of low risk of Drug Drug Interaction (DDI)) | 2.39 | low (a reduction in metabolite peak area of less than 30% (relative to the uninhibited control incubation) receives a designation of low risk of Drug Drug Interaction (DDI)) | low (a reduction in metabolite peak area of less than 30% (relative to the uninhibited control incubation) receives a designation of low risk of Drug Drug Interaction (DDI)) |
| CC(C)(N[C@@H]1C[C@H](c2cccc(F)c2)N(c2ccc(OC(F)(F)F)cc2)C1=O)c1ccnc(C(F)(F)F)n1 [Example 3, (3R,5R)-3-[1-Methyl-1-(2-trifluoromethyl-pyrimidin-4-yl)-ethylamino]-5-(3-fluoro-phenyl)-1-(4-trifluoromethoxy-phenyl)-pyrrolidin-2-one] | 0.195 | 397 | −107 | 379 | 0.916 | low (a reduction in metabolite peak area of less than 30% (relative to the uninhibited control incubation) receives a designation of low risk of Drug Drug Interaction (DDI)) | 1.11 | low (a reduction in metabolite peak area of less than 30% (relative to the uninhibited control incubation) receives a designation of low risk of Drug Drug Interaction (DDI)) | low (a reduction in metabolite peak area of less than 30% (relative to the uninhibited control incubation) receives a designation of low risk of Drug Drug Interaction (DDI)) |
| CC(C)(N[C@@H]1C[C@H](c2ccccc2)N(c2ccc(OC(F)(F)F)cc2)C1=O)c1ccnc(C(F)(F)F)n1 [Example 4] | 0.176 | 288 | −105 | 288 | 0.83 | low (a reduction in metabolite peak area of less than 30% (relative to the uninhibited control incubation) receives a designation of low risk of Drug Drug Interaction (DDI)) | 2.52 | low (a reduction in metabolite peak area of less than 30% (relative to the uninhibited control incubation) receives a designation of low risk of Drug Drug Interaction (DDI)) | low (a reduction in metabolite peak area of less than 30% (relative to the uninhibited control incubation) receives a designation of low risk of Drug Drug Interaction (DDI)) |
